Among the data in ChEMBL document CHEMBL1667840, “Chemical and biological explorations of the electrophilic reactivity of the bioactive marine natural product halenaquinone with biomimetic nucleophiles” (Bioorg Med Chem Lett, 2011) are IC50 values, retold here.

One may read the pIC50 as the negative decadic logarithm of the IC50, by convention in mol/L.

One test deals with Vero. The test can be described thus: Cytotoxicity against african green monkey Vero cells assessed as inhibition of [3H]hypoxanthine incorporation after 48 hrs. The note with it: Chlorocebus sabaeus. It counts as cell-based.
Another test deals with T1, Phospholipase A2 (Apis mellifera, UniProt P00630).
T1 sequence (P00630 whole entry): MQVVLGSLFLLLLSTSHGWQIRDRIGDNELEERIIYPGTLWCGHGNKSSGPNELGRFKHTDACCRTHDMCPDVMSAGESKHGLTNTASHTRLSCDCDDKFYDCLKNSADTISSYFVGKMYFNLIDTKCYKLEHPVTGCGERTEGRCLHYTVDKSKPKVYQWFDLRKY
The test can be described thus: Inhibition of bee venom phospholipase A2 after 5 mins by spectrophotometric analysis.

Test [1] relates to Plasmodium falciparum. Nature of the test: Antiplasmodial activity against chloroquine-sensitive Plasmodium falciparum 3D7 after 48 hrs. The following applies: 3D7, 48 h. The format is functional, organism-based.
For test [2], the system named is Plasmodium falciparum. Nature of the test: Antiplasmodial activity against chloroquine-resistant Plasmodium falciparum FcB1 after 48 hrs. The format is functional, organism-based. The note with it: FcB1/Columbia.
Test [3] can be described thus: Inhibition of Saccharomyces cerevisiae FTase after 15 mins by fluorimetric analysis.
Test [4] deals with Protein farnesyltransferase (Homo sapiens, UniProt P49354+P49356). Nature of the test: Inhibition of human FTase after 15 mins by fluorimetric analysis. The format is protein-complex assay.

pIC50: −log10 of the molar value. Some results are limits rather than exact numbers.

Regarding `COC(=O)CN/C=C1\C(=O)CC[C@]2(C)C1=C(O)C(=O)c1cc3c(cc12)C(=O)C=CC3=O`, the pIC50 with Vero is 4.87; on Phospholipase A2, 4.11; in the test with Plasmodium falciparum [1], 4.78; in the test on Plasmodium falciparum [2], 4.25.

Take `CC(C)(C)OC(=O)NCCN/C=C1\C(=O)CC[C@]2(C)C1=C(O)C(=O)c1cc3c(cc12)C(=O)C=CC3=O`: the values for the negative-log IC50 (pIC50) in the test with Vero, at Phospholipase A2 and in the test with Plasmodium falciparum [2] were 5.13, 4.89 and 4.28, respectively.

With `CC1=CCCC2(C)C1=C(O)C(=O)c1cc3c(cc12)C(=O)C=CC3=O` (stereo unspecified) [ORHALQUINONE], the pIC50 in the test with Vero is less than 4.21; in test [3] it was 6.40.

Turning to `C[C@@]12CCC(=O)c3coc(c31)C(=O)c1cc3c(cc12)C(=O)C=CC3=O` [HELENAQUINONE], the pIC50 in the test with Vero was less than 4.22; in the test with Plasmodium falciparum [1], 4.52; in test [3], 5.80; with Plasmodium falciparum [2] it was less than 4.52.

As to `C[C@@]12CCC(=O)/C(=C\NCCc3ccccc3)C1=C(O)C(=O)c1cc3c(cc12)C(=O)C=CC3=O`, the negative logarithm of the IC50 (pIC50) with Vero was 5.33; against Phospholipase A2, 4.75; in the test on Plasmodium falciparum [1] it was 5.68; in test [3] it was 6.51; in the test with Plasmodium falciparum [2], 5.06; in test [4], 6.36.

In the case of `CCCCCN/C=C1\C(=O)CC[C@]2(C)C1=C(O)C(=O)c1cc3c(cc12)C(=O)C=CC3=O`, the pIC50 in the test on Vero is 5.20; at Phospholipase A2, 4.62; with Plasmodium falciparum [1], 5.13; in test [3] it was 7.39; in the test on Plasmodium falciparum [2], 5.04; in test [4], 7.24.

On to `CC(C)=CCC/C(C)=C/CN/C=C1\C(=O)CC[C@]2(C)C1=C(O)C(=O)c1cc3c(cc12)C(=O)C=CC3=O`, for which the pIC50 in the test on Vero was 5.07; at Phospholipase A2, 4.46; in the test with Plasmodium falciparum [1], 6.28; in test [3], 7.77; with Plasmodium falciparum [2], 6.21; in test [4] it was 7.51.
